The target in assay [1] is T1, BRAF (Homo sapiens, UniProt P15056).
T1 construct: purchased Invitrogen
The assay is described as follows: In vitro kinase assay (Z′-LYTE). It is filed as biochemical. The following applies: compound 100 nM; ATP 100 μM; read-out: % of inhibition of the kinase compared to the control. As to the method: (§1) The inhibitory activity of the compounds on several kinases including BRAF, EGFR (ErbB1), EGFR (ErbB1) T790M L858R, FGFR2, KDR (VEGFR2), PDGFRA (PDGFR alpha), SRC and other was evaluated by Invitrogen using the Z′-LYTE® technology. Briefly, the Z′-LYTE® biochemical assay employs a fluorescence-based, coupled-enzyme format and is based on the differential sensitivity of phosphorylated and non-phosphorylated peptides to proteolytic cleavage. The peptide substrate is labeled with two fluorophores—one at each end—that make up a FRET pair. A ratiometric method, which calculates the ratio (the Emission Ratio) of donor emission to acceptor emission after excitation of the donor fluorophore at 400 nm, is used to quantitate reaction progress.
(§2) The compounds are screened in 1% DMSO (final) in the well. For 10 point titrations, 3-fold serial dilutions are conducted from the starting concentration. All Peptide/Kinase Mixtures are diluted to a 2× working concentration in the appropriate Kinase Buffer. All ATP Solutions are diluted to a 4× working concentration in Kinase Buffer (50 mM HEPES pH 7.5, 0.01% BRIJ-35, 10 mM MgCl2, 1 mM EGTA). ATP Km apparent is previously determined using a Z′-LYTE® assay.
(§3) Each compound was incubated at a concentration of 100 nM (excepted to test the activity against ABL and ABL T315I for which the compounds were incubated at a concentration of 10 μM) and the tables B1 to B12 summarize the results obtained showing the inhibitory power of a compound. The inhibitory activity of OR0512 was also investigated using the same assays and the kinases for which activity was inhibited at more than 50% at the concentration of 100 nM of OR0512 are listed in the table B13.

The target of assay [2] is T2, EGFR (ErbB1) (Homo sapiens, UniProt P00533).
T2 construct: purchased Invitrogen
As to the kind of experiment: In vitro kinase assay (Z′-LYTE). It is filed as biochemical. The note with it: read-out: % of inhibition of the kinase compared to the control. As to the method:
as §1, §2, §3

Assay [3] has as its target T3, EGFR (ErbB1) T790M L858R (Homo sapiens, UniProt P00533, L858R/T790M).
T3 construct: purchased Invitrogen
The assay is described as follows: In vitro kinase assay (Z′-LYTE). It is filed as biochemical. The note with it: read-out: % of inhibition of the kinase compared to the control. As to the method: as §1, §2, §3

Assay [4] has as its target T4, FGFR2 (Homo sapiens, UniProt P21802).
T4 construct: purchased Invitrogen
As to the kind of experiment: In vitro kinase assay (Z′-LYTE). The following applies: read-out: % of inhibition of the kinase compared to the control. It is filed as biochemical. As to the method: as §1, §2, §3

For assay [5], the target named is T5, KDR (VEGFR2) (Homo sapiens, UniProt P35968).
T5 construct: purchased Invitrogen
T5 sequence (P35968 20-1356): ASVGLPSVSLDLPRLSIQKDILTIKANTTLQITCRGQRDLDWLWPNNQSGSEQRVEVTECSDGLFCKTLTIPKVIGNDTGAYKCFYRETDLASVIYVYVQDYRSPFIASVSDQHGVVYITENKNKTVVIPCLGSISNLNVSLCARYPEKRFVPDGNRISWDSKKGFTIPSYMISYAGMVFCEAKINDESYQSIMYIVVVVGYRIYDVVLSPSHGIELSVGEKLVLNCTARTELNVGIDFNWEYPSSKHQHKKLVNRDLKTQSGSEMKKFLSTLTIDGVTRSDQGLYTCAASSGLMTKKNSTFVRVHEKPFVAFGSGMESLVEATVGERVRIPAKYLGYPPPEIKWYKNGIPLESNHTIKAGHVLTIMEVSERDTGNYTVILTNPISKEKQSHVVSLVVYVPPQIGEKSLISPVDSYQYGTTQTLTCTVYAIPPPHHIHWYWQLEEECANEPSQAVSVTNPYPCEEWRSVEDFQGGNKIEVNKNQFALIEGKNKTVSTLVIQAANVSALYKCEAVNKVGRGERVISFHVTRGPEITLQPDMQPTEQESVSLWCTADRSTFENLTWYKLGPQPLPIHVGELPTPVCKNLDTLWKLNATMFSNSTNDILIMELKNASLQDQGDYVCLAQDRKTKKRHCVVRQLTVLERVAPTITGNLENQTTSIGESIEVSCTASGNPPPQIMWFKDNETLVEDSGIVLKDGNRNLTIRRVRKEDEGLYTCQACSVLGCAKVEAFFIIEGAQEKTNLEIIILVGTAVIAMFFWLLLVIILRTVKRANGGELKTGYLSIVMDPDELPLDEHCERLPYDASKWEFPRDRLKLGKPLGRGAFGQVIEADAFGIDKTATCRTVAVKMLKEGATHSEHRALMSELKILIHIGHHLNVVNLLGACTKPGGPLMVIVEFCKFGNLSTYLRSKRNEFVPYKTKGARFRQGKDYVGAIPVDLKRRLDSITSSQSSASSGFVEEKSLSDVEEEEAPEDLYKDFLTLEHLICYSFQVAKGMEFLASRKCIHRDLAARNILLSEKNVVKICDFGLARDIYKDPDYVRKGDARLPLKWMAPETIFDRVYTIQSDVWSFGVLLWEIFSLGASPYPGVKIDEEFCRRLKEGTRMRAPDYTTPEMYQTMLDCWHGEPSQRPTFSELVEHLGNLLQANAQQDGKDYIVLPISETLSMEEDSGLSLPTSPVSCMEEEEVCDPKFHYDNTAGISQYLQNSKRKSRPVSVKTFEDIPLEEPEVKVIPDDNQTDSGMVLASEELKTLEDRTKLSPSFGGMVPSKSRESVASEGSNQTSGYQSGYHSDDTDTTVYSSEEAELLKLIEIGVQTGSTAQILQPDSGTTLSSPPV
As to the kind of experiment: In vitro kinase assay (Z′-LYTE). It is filed as biochemical. The note with it: read-out: % of inhibition of the kinase compared to the control. As to the method: as §1, §2, §3

Assay [6] deals with T6, PDGFRA (PDGFR alpha) (Homo sapiens, UniProt P16234).
T6 construct: purchased Invitrogen
T6 sequence (P16234 24-1089): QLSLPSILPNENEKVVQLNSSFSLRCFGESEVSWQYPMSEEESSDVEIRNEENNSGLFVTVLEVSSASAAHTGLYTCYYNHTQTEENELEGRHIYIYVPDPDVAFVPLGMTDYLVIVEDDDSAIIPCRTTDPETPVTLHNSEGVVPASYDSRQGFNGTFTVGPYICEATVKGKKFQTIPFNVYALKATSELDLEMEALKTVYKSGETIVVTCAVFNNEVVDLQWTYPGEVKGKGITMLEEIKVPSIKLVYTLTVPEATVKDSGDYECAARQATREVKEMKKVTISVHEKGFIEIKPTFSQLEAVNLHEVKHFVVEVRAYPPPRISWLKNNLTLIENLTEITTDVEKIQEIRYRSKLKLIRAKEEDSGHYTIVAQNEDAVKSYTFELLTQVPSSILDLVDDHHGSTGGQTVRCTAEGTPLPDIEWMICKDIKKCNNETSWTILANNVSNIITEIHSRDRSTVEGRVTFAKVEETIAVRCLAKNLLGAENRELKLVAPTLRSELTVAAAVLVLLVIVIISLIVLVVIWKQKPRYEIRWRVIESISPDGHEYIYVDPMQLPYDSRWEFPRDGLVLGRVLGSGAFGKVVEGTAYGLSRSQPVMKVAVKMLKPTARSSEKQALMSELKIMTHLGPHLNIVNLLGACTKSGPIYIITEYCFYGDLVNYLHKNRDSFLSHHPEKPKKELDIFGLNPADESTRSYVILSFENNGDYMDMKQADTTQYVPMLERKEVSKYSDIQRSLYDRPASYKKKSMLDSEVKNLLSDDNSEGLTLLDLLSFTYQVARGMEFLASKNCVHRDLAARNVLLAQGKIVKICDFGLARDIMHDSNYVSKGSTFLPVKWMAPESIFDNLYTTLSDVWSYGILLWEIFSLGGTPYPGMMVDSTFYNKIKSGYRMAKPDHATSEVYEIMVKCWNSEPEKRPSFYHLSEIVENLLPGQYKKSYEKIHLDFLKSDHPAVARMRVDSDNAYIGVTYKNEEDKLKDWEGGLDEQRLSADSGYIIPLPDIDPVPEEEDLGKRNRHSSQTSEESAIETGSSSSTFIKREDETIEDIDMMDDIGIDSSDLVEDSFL
As to the kind of experiment: In vitro kinase assay (Z′-LYTE). It is filed as biochemical. The following applies: read-out: % of inhibition of the kinase compared to the control. As to the method:
as §1, §2, §3

Assay [7] has as its target T7, SRC (Homo sapiens, UniProt P12931).
T7 construct: purchased Invitrogen
As to the kind of experiment: In vitro kinase assay (Z′-LYTE). It is filed as biochemical. The note with it: read-out: % of inhibition of the kinase compared to the control. As to the method: as §1, §2, §3

The test system of assay [8] is A549. The assay is described as follows: In vitro cell proliferation assay (MTT). It is filed as cell-based. The note with it: Homo sapiens, A549, 72 h. As to the method:
(§4) Cancer cell lines (5×10^3 cells per well) or HUVEC (1×10^4 cells per well) or HRMEC (1×10^4 cells per well) were distributed in 96-well plates and incubating in duplicate with escalating concentrations (10 nM to 3 μM) of compounds for 72 hr. Cell proliferation was measured using MTT (3 [4,5-dimethylthiazol-2-yl]-2,5-diphenyltetrazolium bromide).

Assay [9] concerns BxPC-3. As to the kind of experiment: In vitro cell proliferation assay (MTT). It is filed as cell-based. The following applies: Homo sapiens, BXPC-3, 72 h. As to the method: as §4
In assay [10] the test system is H1975. The assay is described as follows: In vitro cell proliferation assay (MTT). It is filed as cell-based. The note with it: Homo sapiens, NCI-H1975, 72 h. As to the method:
as §4

In assay [11] the test system is HT29. As to the kind of experiment: In vitro cell proliferation assay (MTT). It is filed as cell-based. The following applies: Homo sapiens, HT-29, 72 h. As to the method: as §4
Assay [12] deals with HUVEC. As to the kind of experiment: In vitro cell proliferation assay (MTT). It is filed as cell-based. The following applies: Homo sapiens, 72 h. As to the method:
as §4

The subject of assay [13] is HepG2. As to the kind of experiment: In vitro cell proliferation assay (MTT). It is filed as cell-based. The note with it: Homo sapiens, HepG2, 72 h. As to the method:
as §4

For assay [14], the target named is T8, ABL (Homo sapiens, UniProt P00519).
T8 construct: purchased Invitrogen
The assay is described as follows: In vitro kinase assay (Z′-LYTE). It is filed as biochemical. The note with it: read-out: % of inhibition of the kinase compared to the control. As to the method: as §1, §2, §3

Assay [15] has as its target T9, ABL T315I (Homo sapiens, UniProt P00519, T315I).
T9 construct: purchased Invitrogen
As to the kind of experiment: In vitro kinase assay (Z′-LYTE). It is filed as biochemical. The note with it: read-out: % of inhibition of the kinase compared to the control. As to the method: as §1, §2, §3

The target in assay [16] is T10, FGFR1 (Homo sapiens, UniProt P11362).
T10 construct: purchased Invitrogen
T10 sequence (P11362 22-822): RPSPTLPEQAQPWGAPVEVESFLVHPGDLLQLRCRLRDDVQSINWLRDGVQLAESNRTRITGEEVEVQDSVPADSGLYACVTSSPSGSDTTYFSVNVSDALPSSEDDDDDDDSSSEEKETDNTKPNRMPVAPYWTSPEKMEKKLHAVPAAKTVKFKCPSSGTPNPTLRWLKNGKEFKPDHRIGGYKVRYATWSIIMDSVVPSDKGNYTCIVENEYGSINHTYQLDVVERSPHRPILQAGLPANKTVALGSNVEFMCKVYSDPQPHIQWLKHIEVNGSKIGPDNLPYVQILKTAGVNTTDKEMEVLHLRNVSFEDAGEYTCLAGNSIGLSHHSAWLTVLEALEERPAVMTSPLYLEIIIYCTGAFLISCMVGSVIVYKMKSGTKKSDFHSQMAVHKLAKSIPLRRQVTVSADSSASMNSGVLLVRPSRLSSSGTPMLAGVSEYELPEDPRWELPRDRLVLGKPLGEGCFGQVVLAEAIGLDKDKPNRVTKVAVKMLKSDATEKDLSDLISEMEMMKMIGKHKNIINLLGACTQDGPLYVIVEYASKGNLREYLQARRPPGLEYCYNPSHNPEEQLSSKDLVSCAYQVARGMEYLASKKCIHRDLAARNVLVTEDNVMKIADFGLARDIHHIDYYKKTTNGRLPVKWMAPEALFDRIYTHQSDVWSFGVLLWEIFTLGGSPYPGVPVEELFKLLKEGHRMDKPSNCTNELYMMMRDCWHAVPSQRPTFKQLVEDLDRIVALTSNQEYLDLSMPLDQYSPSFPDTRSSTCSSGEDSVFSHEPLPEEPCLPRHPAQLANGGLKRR
The assay is described as follows: In vitro kinase assay (Z′-LYTE). It is filed as biochemical. The following applies: read-out: % of inhibition of the kinase compared to the control. As to the method:
as §1, §2, §3

In assay [17] the target is T11, PDGFRB (Homo sapiens, UniProt P09619).
T11 construct: purchased Invitrogen
T11 sequence (P09619 33-1106): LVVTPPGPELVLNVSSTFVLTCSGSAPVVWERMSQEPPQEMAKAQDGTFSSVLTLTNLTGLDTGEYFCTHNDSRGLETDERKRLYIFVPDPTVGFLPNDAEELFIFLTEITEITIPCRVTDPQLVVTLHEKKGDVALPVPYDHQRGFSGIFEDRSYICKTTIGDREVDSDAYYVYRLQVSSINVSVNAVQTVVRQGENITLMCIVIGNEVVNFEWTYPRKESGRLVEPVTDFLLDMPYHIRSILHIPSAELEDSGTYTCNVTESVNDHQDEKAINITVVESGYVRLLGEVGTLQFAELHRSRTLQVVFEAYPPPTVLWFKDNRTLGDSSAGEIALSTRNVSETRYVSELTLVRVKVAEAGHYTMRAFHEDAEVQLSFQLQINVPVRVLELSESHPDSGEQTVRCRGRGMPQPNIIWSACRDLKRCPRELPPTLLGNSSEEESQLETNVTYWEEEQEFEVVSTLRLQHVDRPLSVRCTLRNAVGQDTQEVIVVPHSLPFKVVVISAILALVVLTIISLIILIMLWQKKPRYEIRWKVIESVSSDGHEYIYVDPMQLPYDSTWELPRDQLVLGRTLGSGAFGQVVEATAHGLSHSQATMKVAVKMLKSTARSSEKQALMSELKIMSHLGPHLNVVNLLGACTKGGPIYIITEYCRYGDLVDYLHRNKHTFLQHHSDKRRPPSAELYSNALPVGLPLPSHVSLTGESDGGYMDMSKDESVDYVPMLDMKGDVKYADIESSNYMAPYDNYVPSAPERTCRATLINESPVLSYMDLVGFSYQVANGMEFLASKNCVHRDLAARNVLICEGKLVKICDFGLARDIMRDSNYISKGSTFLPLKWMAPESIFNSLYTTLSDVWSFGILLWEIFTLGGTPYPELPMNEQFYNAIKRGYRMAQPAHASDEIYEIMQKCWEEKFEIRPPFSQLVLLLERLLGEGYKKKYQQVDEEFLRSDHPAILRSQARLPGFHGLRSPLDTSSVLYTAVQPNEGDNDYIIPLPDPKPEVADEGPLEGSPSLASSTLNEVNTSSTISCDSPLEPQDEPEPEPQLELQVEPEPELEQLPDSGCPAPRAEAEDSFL
As to the kind of experiment: In vitro kinase assay (Z′-LYTE). It is filed as biochemical. The note with it: read-out: % of inhibition of the kinase compared to the control. As to the method: as §1, §2, §3

Assay [18] addresses T12, VEGFR1 (Homo sapiens, UniProt P17948).
T12 construct: purchased Invitrogen
As to the kind of experiment: In vitro kinase assay (Z′-LYTE). It is filed as biochemical. The following applies: read-out: % of inhibition of the kinase compared to the control. As to the method:
as §1, §2, §3

T1 sequence (P15056 whole entry): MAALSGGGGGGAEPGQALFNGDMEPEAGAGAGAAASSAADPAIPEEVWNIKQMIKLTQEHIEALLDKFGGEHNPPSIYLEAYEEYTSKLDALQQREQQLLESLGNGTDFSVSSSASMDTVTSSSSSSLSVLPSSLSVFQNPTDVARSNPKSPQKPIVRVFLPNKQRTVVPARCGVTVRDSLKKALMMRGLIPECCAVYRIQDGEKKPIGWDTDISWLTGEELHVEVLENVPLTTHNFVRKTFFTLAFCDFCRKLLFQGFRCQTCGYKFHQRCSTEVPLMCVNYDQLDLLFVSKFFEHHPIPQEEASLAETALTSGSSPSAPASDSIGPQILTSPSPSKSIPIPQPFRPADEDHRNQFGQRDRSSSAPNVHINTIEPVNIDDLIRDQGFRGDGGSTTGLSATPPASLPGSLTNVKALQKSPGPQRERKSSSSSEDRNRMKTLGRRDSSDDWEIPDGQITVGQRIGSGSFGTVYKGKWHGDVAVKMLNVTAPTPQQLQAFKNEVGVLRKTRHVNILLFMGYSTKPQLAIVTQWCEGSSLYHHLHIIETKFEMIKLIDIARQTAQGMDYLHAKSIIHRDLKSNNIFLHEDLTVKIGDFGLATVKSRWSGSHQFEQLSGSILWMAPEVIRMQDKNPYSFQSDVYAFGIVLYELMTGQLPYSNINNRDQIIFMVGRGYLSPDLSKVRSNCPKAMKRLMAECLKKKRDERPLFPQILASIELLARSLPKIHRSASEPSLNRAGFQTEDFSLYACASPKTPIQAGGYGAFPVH

For `CCCOC(=O)c1cc2cc(NCc3cc(NC(=O)c4ccc(CN5CCN(C)CC5)c(C(F)(F)F)c4)ccc3C)cnc2[nH]1` [OR0697, 5-{2-methyl-5-[4-(4-methyl-piperazin-1-ylmethyl)-3-trifluoromethyl-benzoylamino]-benzylamino}-1H-pyrrolo[2,3-b]pyridine-2-carboxylic acid propyl ester], the inhibition at 0.1 µM in assay [1] was less than 50%; in assay [2], not below 50%; in assay [3] it was less than 50%; in [4], less than 50%; in [5], less than 50%; in assay [6] it was less than 50%. The inhibition at 0.1 µM in assay [7] is not below 50%. For the same compound, the EC50 was 100 to 1000 nM in [8]; 100 to 1000 nM in assay [9]; not below 1000 nM in assay [10]; 100 to 1000 nM in assay [11]; 100 to 1000 nM in assay [12]; 100 to 1000 nM in [13].

With `COC(=O)c1cc2cc(NCc3cc(NC(=O)c4cccc(Br)c4)ccc3C)cnc2[nH]1` [OR0608], the inhibition at 10 µM in [14] is not below 50%; in assay [15] it was less than 50%. Besides, the inhibition at 0.1 µM is not below 50% in assay [1]; less than 50% in assay [2]; less than 50% in [3]; less than 50% in assay [16]; less than 50% in assay [4]; not below 50% in [5]. Moreover, the inhibition at 0.1 µM is not below 50% in [6], less than 50% in assay [17], not below 50% in assay [7] and less than 50% in [18]. In addition, the EC50 in assay [8] was 100 to 1000 nM; in [9] it was 100 to 1000 nM; in assay [10], not below 1000 nM; in assay [11], not below 1000 nM; in assay [12] it was 100 to 1000 nM; in assay [13], 100 to 1000 nM.

Take `COC(=O)c1cc2cc(NCc3cc(NC(=O)C4CCC(C(F)(F)F)CC4)ccc3C)cnc2[nH]1` (centres unmarked) [OR0612]: the inhibition at 10 µM is not below 50% in assay [14] and less than 50% in assay [15]. For the same compound, the inhibition at 0.1 µM in assay [1], in [2], in [3], in [16], in [4] and in [5] was less than 50% in each case. Besides, the inhibition at 0.1 µM in assay [6] is not below 50%; in assay [17] it was less than 50%; in assay [7] it was not below 50%; in assay [18], less than 50%. The EC50 in assay [8] is 100 to 1000 nM; in assay [9], 100 to 1000 nM; in [10], not below 1000 nM; in assay [11], not below 1000 nM; in assay [12] it was 100 to 1000 nM; in assay [13], 100 to 1000 nM.

Turning to `C#Cc1cccc(Nc2ncnc3cc(OCCOC)c(OCCOC)cc23)c1` [Erlotinib, reference compound], the concentration for a half-maximal effect (EC50) in assay [9], in assay [10] and in assay [12] was not below 1000 nM in each case.

`COC(=O)c1cc2cc(NCc3cc(NC(=O)Nc4cccc(C(F)(F)F)c4)ccc3C)cnc2[nH]1` [OR0603]: the values for the inhibition at 10 µM in assay [14] and in assay [15] were not below 50% and less than 50%, respectively. For the same compound, the inhibition at 0.1 µM in [1], in assay [2], in assay [3], in assay [16], in [4] and in [5] was less than 50% each time. Further, the inhibition at 0.1 µM in assay [6] was not below 50%; in [17], less than 50%; in assay [7], not below 50%; in assay [18] it was less than 50%. Further, in assay [9], the concentration giving a half-maximal response (EC50) was 100 to 1000 nM.
